Test results from patent US20250136559A1, “SMO MODULATOR COMPOUNDS” (OMASS THERAPEUTICS LIMITED, priority 2022, published 2025).

What was measured:
Type in all cases: cell-based
mouse SMO^W535L = biological target: T1, mouse SMO^W535L (Mus musculus, UniProt P56726, W539L); assay: Mouse assay: Gli1 qPCR in MEF cells stably expressing mouse SMO W535L; conditions: mSHh-treated, 24 hours; for IC50: Gli1 inhibition by qPCR, read-out: Mouse W535L pIC50 (converted); for Mouse W535L % Inh: percentage Gli1 inhibition
T1 construct: expressed in transfected cells
T1 sequence (P56726 33-793 W539L): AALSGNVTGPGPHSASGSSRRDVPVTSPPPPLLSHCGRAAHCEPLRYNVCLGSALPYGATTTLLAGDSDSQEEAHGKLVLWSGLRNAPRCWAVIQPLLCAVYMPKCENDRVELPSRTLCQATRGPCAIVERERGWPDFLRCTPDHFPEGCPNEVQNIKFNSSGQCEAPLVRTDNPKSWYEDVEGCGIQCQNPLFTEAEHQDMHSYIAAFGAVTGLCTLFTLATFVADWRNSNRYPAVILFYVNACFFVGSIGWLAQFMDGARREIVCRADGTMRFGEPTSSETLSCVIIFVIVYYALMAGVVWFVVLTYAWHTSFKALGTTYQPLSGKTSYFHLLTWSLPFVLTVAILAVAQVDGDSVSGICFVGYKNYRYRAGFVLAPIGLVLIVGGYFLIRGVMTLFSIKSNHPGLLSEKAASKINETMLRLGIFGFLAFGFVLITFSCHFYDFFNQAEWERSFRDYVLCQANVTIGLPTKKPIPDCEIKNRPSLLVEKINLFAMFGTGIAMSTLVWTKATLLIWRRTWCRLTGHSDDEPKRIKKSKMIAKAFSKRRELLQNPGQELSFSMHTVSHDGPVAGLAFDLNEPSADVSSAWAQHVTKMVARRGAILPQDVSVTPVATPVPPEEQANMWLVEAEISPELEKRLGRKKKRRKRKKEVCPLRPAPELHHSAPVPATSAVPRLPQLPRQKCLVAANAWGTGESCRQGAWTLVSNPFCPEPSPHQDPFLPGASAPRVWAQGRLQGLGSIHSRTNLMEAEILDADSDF
Procedure: (§1) Cell culture. All materials were purchased from Sigma-Aldrich, unless otherwise stated.
(§2) Compound treatment. […] After 1 hour incubation, cells were treated with assay medium containing mSHh prepared at 2.5× of final assay concentrations specified in the text and incubated for a further 24 hours at 37′C in a humidified 95% air/5% CO2 atmosphere prior to qPCR analysis.
(§3) Cell lysis and one-step qPCR. The Cells-to-CT™ 1-Step TaqMan® Kit was used in conjunction with TaqMan primer-probe assays for the detection of Gli1 (FAM, Mm00494654_m1) and Gusb (VIC, Mm01197698_m1) genes (all purchased from Life Technologies). Following 24 hours cell treatment, spent medium was removed and cells were washed with PBS before the application of lysis and stop solution as per manufacturer's instructions. The qPCR reactions were run in a 384-well PCR plate using master mix prepared according to manufacturer's instructions and cell lysate samples from treatment wells. Real-time PCR amplification was detected using the Bio-Rad CFX384 Touch PCR system. Four experimental replicates (two cell replicates and two qPCR replicates) were performed for each compound concentration tested. Real-time data were analysed using the CFX Maestro software (Bio-Rad) and obtained expression values were converted to percentage Gli1 inhibition by normalising to the average Gli1 expression of mSHh-treated control samples.

mouse SMO^D473H = biological target: T2, mouse SMO^D473H (Mus musculus, UniProt P56726, D477H); assay: Mouse assay: Gli1 qPCR in MEF cells stably expressing mouse SMO D473H; conditions: mSHh-treated, 24 hours; for IC50: Gli1 inhibition by qPCR, read-out: Mouse D473H pIC50 (converted); for Mouse D473H % Inh: percentage Gli1 inhibition
T2 construct: expressed in transfected cells
T2 sequence (P56726 33-793 D477H): as the sequence (P56726 33-793 W539L) above, with D445H, L507W counted along it
Procedure: as §1, §2, §3

mouse SMO^WT = biological target: T3, mouse SMO^WT (Mus musculus, UniProt P56726); assay: Mouse assay: Gli1 qPCR in MEF cells stably expressing mouse SMO WT; conditions: mSHh-treated, 24 hours; for IC50: Gli1 inhibition by qPCR, read-out: Mouse WT pIC50 (converted); for Mouse WT % Inh: percentage Gli1 inhibition
T3 construct: expressed in transfected cells
T3 sequence (P56726 33-793): as the sequence (P56726 33-793 W539L) above, with L507W counted along it
Procedure: as §1, §2, §3

## Cc1ccc(Cc2nc(-c3ccc(NC(=O)c4cccc(CN5CCS(=O)(=O)CC5)c4)cc3)no2)cc1 [Example 4-16, 3-[(1,1-Dioxo-1,4-thiazinan-4-yl)methyl]-N-[4-[5-[(4-methylphenyl)methyl]-1,2,4-oxadiazol-3-yl]phenyl]benzamide]
Mouse SMO^W535L
  IC50: 20 nM
  Mouse W535L % Inh: 72.5%
Mouse SMO^D473H
  IC50: 12.6 nM
  Mouse D473H % Inh: 98.8%
Mouse SMO^WT
  IC50: 2 nM
  Mouse WT % Inh: 97.5%

## COc1ccc(-c2n[nH]c(-c3ccc(NC(=O)c4cccc(CN5CCS(=O)(=O)CC5)c4)cc3)n2)cc1 [Example 3-12, 3-[(1,1-Dioxo-1,4-thiazinan-4-yl)methyl]-N-[4-[5-(4-methoxyphenyl)-1H-1,2,4-triazol-3-yl]phenyl]benzamide]
Mouse SMO^W535L
  IC50: 316 nM
  Mouse W535L % Inh: 53.3%
Mouse SMO^D473H
  IC50: 200 nM
  Mouse D473H % Inh: 97.5%
Mouse SMO^WT
  IC50: 12.6 nM
  Mouse WT % Inh: 99.0%

## Cc1ccc(Cc2n[nH]c(-c3ccc(NC(=O)c4cccc(CN5CCS(=O)(=O)CC5)c4)cc3)n2)cc1C [Example 3-25, N-[4-[5-[(3,4-Dimethylphenyl)methyl]-1H-1,2,4-triazol-3-yl]phenyl]-3-[(1,1-dioxo-1,4-thiazinan-4-yl)methyl]benzamide]
Mouse SMO^W535L
  IC50: 39.8 nM
  Mouse W535L % Inh: 80.5%
Mouse SMO^D473H
  IC50: 100 nM
  Mouse D473H % Inh: 97.4%
Mouse SMO^WT
  IC50: 2 nM
  Mouse WT % Inh: 98.5%

## O=C(Nc1ccc(-c2nc(Cc3cc4c(cc3Cl)OCO4)n[nH]2)cc1)c1cccc(CN2CCS(=O)(=O)CC2)c1 [Example 3-29, N-[4-[3-[(6-Chloro-1,3-benzodioxol-5-yl)methyl]-1H-1,2,4-triazol-5-yl]phenyl]-3-[(1,1-dioxo-1,4-thiazinan-4-yl)methyl]benzamide]
Mouse SMO^W535L
  IC50: 126 nM
  Mouse W535L % Inh: 64.8%
Mouse SMO^D473H
  IC50: 251 nM
  Mouse D473H % Inh: 98.9%
Mouse SMO^WT
  IC50: 25.1 nM
  Mouse WT % Inh: 99.1%

## O=C(Nc1ccc(-c2nc(-c3cccc(Oc4nccs4)c3)n[nH]2)cc1)c1cccc(CN2CCS(=O)(=O)CC2)c1 [Example 3-13, 3-[(1,1-Dioxo-1,4-thiazinan-4-yl)methyl]-N-[4-[3-[3-(1,3-thiazol-2-yloxy)phenyl]-1H-1,2,4-triazol-5-yl]phenyl]benzamide]
Mouse SMO^W535L
  IC50: > 3310 nM
  Mouse W535L % Inh: 76.7%
Mouse SMO^D473H
  IC50: 631 nM
  Mouse D473H % Inh: 78.5%
Mouse SMO^WT
  IC50: 79.4 nM
  Mouse WT % Inh: 97.4%

## Cc1ccc(Cc2n[nH]c(-c3ccc(NC(=O)c4cccc(CN5CCS(=O)(=O)CC5)c4)cc3)n2)cc1 [Example 3-18, 3-[(1,1-Dioxo-1,4-thiazinan-4-yl)methyl]-N-[4-[5-[(4-methylphenyl)methyl]-1H-1,2,4-triazol-3-yl]phenyl]benzamide]
Mouse SMO^W535L
  IC50: 25.1 nM
  Mouse W535L % Inh: 65.7%
Mouse SMO^D473H
  IC50: 79.4 nM
  Mouse D473H % Inh: 98.1%
Mouse SMO^WT
  IC50: 3.16 nM
  Mouse WT % Inh: 98.5%

## O=C(Nc1ccc(-c2nc(Cc3ccc4c(c3)OCCO4)n[nH]2)cc1)c1cccc(CN2CCS(=O)(=O)CC2)c1 [Example 3-28, N-[4-[3-(2,3-Dihydro-1,4-benzodioxin-6-ylmethyl)-1H-1,2,4-triazol-5-yl]phenyl]-3-[(1,1-dioxo-1,4-thiazinan-4-yl)methyl]benzamide]
Mouse SMO^W535L
  IC50: 316 nM
  Mouse W535L % Inh: 59.7%
Mouse SMO^D473H
  IC50: 794 nM
  Mouse D473H % Inh: 97.7%
Mouse SMO^WT
  IC50: 79.4 nM
  Mouse WT % Inh: 99.4%

## O=C(Nc1ccc(-c2nc(C3CC3)n[nH]2)cc1)c1cc(CN2CCS(=O)(=O)CC2)ccc1F [Example 2-1, N-[4-(5-Cyclopropyl-1H-1,2,4-triazol-3-yl)phenyl]-5-[(1,1-dioxo-1,4-thiazinan-4-yl)methyl]-2-fluorobenzamide]
Mouse SMO^W535L
  IC50: 79.4 nM
  Mouse W535L % Inh: 68.2%
Mouse SMO^D473H
  IC50: 200 nM
  Mouse D473H % Inh: 95.3%
Mouse SMO^WT
  IC50: 15.8 nM
  Mouse WT % Inh: 96.5%

## Cc1nc(-c2ccc(NC(=O)c3cccc(CN4CCS(=O)(=O)CC4)c3)cc2)oc1C [Example 4-1, N-[4-(4,5-Dimethyl-1,3-oxazol-2-yl)phenyl]-3-[(1,1-dioxo-1,4-thiazinan-4-yl)methyl]benzamide]
Mouse SMO^W535L
  IC50: 63.1 nM
  Mouse W535L % Inh: 78.6%
Mouse SMO^D473H
  IC50: 50.1 nM
  Mouse D473H % Inh: 98.6%
Mouse SMO^WT
  IC50: 6.31 nM
  Mouse WT % Inh: 99.2%

## O=C(Nc1ccc(-c2noc(Cc3ccccc3)n2)cc1)c1cccc(CN2CCS(=O)(=O)CC2)c1 [Example 4-15, N-[4-(5-Benzyl-1,2,4-oxadiazol-3-yl)phenyl]-3-[(1,1-dioxo-1,4-thiazinan-4-yl)methyl]benzamide]
Mouse SMO^W535L
  IC50: 31.6 nM
  Mouse W535L % Inh: 82.0%
Mouse SMO^D473H
  IC50: 31.6 nM
  Mouse D473H % Inh: 99.4%
Mouse SMO^WT
  IC50: 6.31 nM
  Mouse WT % Inh: 99.0%

## Cl.O=C(Nc1ccc(-c2noc(C3CC3)n2)cc1)c1cccc(CN2CCS(=O)(=O)CC2)c1 [Example 4-12, N-[4-(5-Cyclopropyl-1,2,4-oxadiazol-3-yl)phenyl]-3-[(1,1-dioxo-1,4-thiazinan-4-yl)methyl]benzamide]
Mouse SMO^W535L
  IC50: 158 nM
  Mouse W535L % Inh: 57.8%
Mouse SMO^D473H
  IC50: 39.8 nM
  Mouse D473H % Inh: 99.8%
Mouse SMO^WT
  IC50: 10 nM
  Mouse WT % Inh: 99.6%

## O=C(Nc1ccc(-c2nc(C3CCCCC3)n[nH]2)cc1)c1cccc(CN2CCS(=O)(=O)CC2)c1 [Example 3-6, N-[4-(3-Cyclohexyl-1H-1,2,4-triazol-5-yl)phenyl]-3-[(1,1-dioxo-1,4-thiazinan-4-yl)methyl]benzamide]
Mouse SMO^W535L
  IC50: 79.4 nM
  Mouse W535L % Inh: 51.7%
Mouse SMO^D473H
  IC50: 200 nM
  Mouse D473H % Inh: 98.4%
Mouse SMO^WT
  IC50: 31.6 nM
  Mouse WT % Inh: 98.4%

## CC1(C)CN(Cc2cccc(C(=O)Nc3ccc(-c4nc(C5CC5)n[nH]4)cc3)c2)CCS1(=O)=O [Example 1-3, N-[4-(3-cyclopropyl-1H-1,2,4-triazol-5-yl)phenyl]-3-[(2,2-dimethyl-1,1-dioxo-1,4-thiazinan-4-yl)methyl]benzamide]
Mouse SMO^W535L
  IC50: 158 nM
  Mouse W535L % Inh: 62.6%
Mouse SMO^D473H
  IC50: 63.1 nM
  Mouse D473H % Inh: 99.7%
Mouse SMO^WT
  IC50: 20 nM
  Mouse WT % Inh: 99.4%

## Cl.Cn1nc(-c2ccc(NC(=O)c3cccc(CN4CCS(=O)(=O)CC4)c3)cc2)nc1C1CC1 [Example 4-27, N-[4-(5-cyclopropyl-1-methyl-1,2,4-triazol-3-yl)phenyl]-3-[(1,1-dioxo-1,4-thiazinan-4-yl)methyl]benzamide]
Mouse SMO^W535L
  IC50: 158 nM
  Mouse W535L % Inh: 77.7%
Mouse SMO^D473H
  IC50: 50.1 nM
  Mouse D473H % Inh: 98.5%
Mouse SMO^WT
  IC50: 6.31 nM
  Mouse WT % Inh: 99.5%

## O=C(Nc1ccc(-c2nc(-c3cccc(Cl)c3)n[nH]2)cc1)c1cccc(CN2CCS(=O)(=O)CC2)c1 [Example 3-11, N-[4-[3-(3-Chlorophenyl)-1H-1,2,4-triazol-5-yl]phenyl]-3-[(1,1-dioxo-1,4-thiazinan-4-yl)methyl]benzamide]
Mouse SMO^W535L
  IC50: 501 nM
  Mouse W535L % Inh: 62.5%
Mouse SMO^D473H
  IC50: 100 nM
  Mouse D473H % Inh: 98.5%
Mouse SMO^WT
  IC50: 10 nM
  Mouse WT % Inh: 98.4%

## Cl.O=C(Nc1ccc(-c2nc(C3CCC3)n[nH]2)cc1)c1cccc(CN2CCS(=O)(=O)CC2)c1 [Example 3-4, N-[4-(3-Cyclobutyl-1H-1,2,4-triazol-5-yl)phenyl]-3-[(1,1-dioxo-1,4-thiazinan-4-yl)methyl]benzamide]
Mouse SMO^W535L
  IC50: 200 nM
  Mouse W535L % Inh: 63.0%
Mouse SMO^D473H
  IC50: 200 nM
  Mouse D473H % Inh: 97.7%
Mouse SMO^WT
  IC50: 25.1 nM
  Mouse WT % Inh: 98.0%

## Cl.O=C(Nc1ccc(-c2nnc(C3CC3)o2)cc1)c1cccc(CN2CCS(=O)(=O)CC2)c1 [Example 4-8, N-[4-(5-Cyclopropyl-1,3,4-oxadiazol-2-yl)phenyl]-3-[(1,1-dioxo-1,4-thiazinan-4-yl)methyl]benzamide]
Mouse SMO^W535L
  IC50: 501 nM
  Mouse W535L % Inh: 65.9%
Mouse SMO^D473H
  IC50: 794 nM
  Mouse D473H % Inh: 94.9%
Mouse SMO^WT
  IC50: 79.4 nM
  Mouse WT % Inh: 98.9%

## O=C(Nc1ccc(-c2cc(C3CC3)on2)cc1)c1cccc(CN2CCS(=O)(=O)CC2)c1 [Example 4-7, N-[4-(5-Cyclopropyl-1,2-oxazol-3-yl)phenyl]-3-[(1,1-dioxo-1,4-thiazinan-4-yl)methyl]benzamide]
Mouse SMO^W535L
  IC50: 31.6 nM
  Mouse W535L % Inh: 76.0%
Mouse SMO^D473H
  IC50: 20 nM
  Mouse D473H % Inh: 99.3%
Mouse SMO^WT
  IC50: 2.51 nM
  Mouse WT % Inh: 98.8%

## O=C(Nc1ccc(-c2nc(CC3CC3)n[nH]2)cc1)c1cccc(CN2CCS(=O)(=O)CC2)c1 [Example 3-7, N-[4-[3-(Cyclopropylmethyl)-1H-1,2,4-triazol-5-yl]phenyl]-3-[(1,1-dioxo-1,4-thiazinan-4-yl)methyl]benzamide]
Mouse SMO^W535L
  IC50: 200 nM
  Mouse W535L % Inh: 70.7%
Mouse SMO^D473H
  IC50: 200 nM
  Mouse D473H % Inh: 97.3%
Mouse SMO^WT
  IC50: 25.1 nM
  Mouse WT % Inh: 98.5%
